Data on five molecules can be found in patent publication US10052297B2, “L-serine to be used as a drug for preventing and/or treating an inflammatory response of the skin” (PIERRE FABRE DERMO-COSMETIQUE, priority 2009, dated 2018).

Marks after values point to notes of the source that are not given here.

The target in one experiment is T1, PAR2 (Homo sapiens, UniProt P55085).
T1 construct: HaCaT cell line keratinocyte models were used; endogenous in cells; host or cells: HaCaT keratinocytes
T1 sequence (P55085 26-397): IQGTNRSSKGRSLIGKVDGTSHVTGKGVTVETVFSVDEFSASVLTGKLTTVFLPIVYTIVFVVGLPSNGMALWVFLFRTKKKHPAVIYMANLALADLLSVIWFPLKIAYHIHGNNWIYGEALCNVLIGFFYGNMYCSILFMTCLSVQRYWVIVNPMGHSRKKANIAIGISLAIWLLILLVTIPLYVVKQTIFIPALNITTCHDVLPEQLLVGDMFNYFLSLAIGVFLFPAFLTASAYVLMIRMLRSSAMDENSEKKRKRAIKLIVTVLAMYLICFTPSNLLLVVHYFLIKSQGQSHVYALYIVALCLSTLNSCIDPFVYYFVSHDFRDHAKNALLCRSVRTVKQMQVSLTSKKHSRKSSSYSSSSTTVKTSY
Kind of experiment: Inhibition of trypsin-induced calcium flow (PAR2 activation) in HaCaT keratinocytes, Fluo-4/AM fluorescence. In kind it is cell-based. The conditions noted are these: HaCaT cells, 10 nM trypsin stimulation; for inhibition at 3 µM / inhibition at 10 µM / inhibition at 30 µM / inhibition at 100 µM: 30 min incubation, read-out: Anti-PAR2 activity (percentage of inhibition); for Inhibition of PAR2 activation (result in words): 3-100 μM. The protocol:
HaCaT cell line keratinocyte models were used. L-serine and L-asparagine were purchased from EVONIK, L-arginine was purchased from AMINO and L-valine was purchased from AJINOMOTO.
A fluorescent probe (Fluo-4/AM at a concentration of 2 μM) is incorporated for 30 minutes in cells inoculated in 96-well plates and the active agent to be tested is incubated for 30 minutes. Only the deesterified form of the probe bound to calcium ions is excitable under 485 nm fluorescence and emits at 535 nm. The incubation buffer used is HBSS buffer supplemented with HEPES (20 mM) and with water-soluble probenecid (2.5 mM).
The cells were stimulated with 10 nM trypsin.
The reference molecule used is a STI molecule (soybean trypsin inhibitor) at a concentration of 1 μM.
L-serine and L-asparagine, solubilized at 50 mg/ml in distilled water (475.8 mM for L-serine and 378.4 mM for L-asparagine) were evaluated at concentrations of 3 μM, 10 μM, 30 μM and 100 μM.
L-arginine was solubilized at 100 mM in distilled water.
L-valine was solubilized at 200 mM in distilled water.
Calcium flow, which represents PAR2 activation, is measured by fluorescence, well by well in real time according to kinetics before and after the injection of trypsin. The percentage of inhibition of PAR2 activation corresponds to the percentage of inhibition of calcium flow.

The subject of the next experiment is IL-8 secretion. Put plainly: Inhibition of IL-8 secretion stimulated by trypsin in HaCaT keratinocytes (sandwich ELISA). Type of experiment: cell-based. As to conditions: Homo sapiens, 10 nM trypsin 24 h, n=2 experiments. As for the experimental part:
The test performed permitted to evaluate the anti-inflammatory activity of L-serine in terms of IL-8 secretion, stimulated by trypsin, on human keratinocytes from a cell line (HaCaT). Principle of the IL-8 Assay: Sandwich ELISA for Quantification of IL-8 Secreted in Culture Supernatants. IL-8 is captured by a monoclonal antibody bound to microplate wells. A second anti-IL-8 antibody is added. This antibody is biotinylated, which enabled the binding of streptavidin coupled with peroxidase activity. Adding the peroxidase substrate makes it possible to quantify the IL-8 concentration in each well by measuring absorbance at 450 nm. The HaCaT human keratinocyte cell line was used. A 96-well microplate for cell culture and a plate reader with injectors, Mithras LB940TM (Berthold Technologies®), were used. 10 nM trypsin was used as stimulation agent. Reagents from the Human CXCL8/IL8 DuoSet R&D System kit (ref. DY208(E)) were used. L-serine, solubilized at 475.8 mM in distilled water, was evaluated at concentrations of 3 μM, 10 μM, 30 μM, 100 μM, 300 μM and 1 mM. L-serine is incubated for 1 hour at 37° C. (HBSS buffer). The stimulation agent (trypsin […]) is then added and incubated for 24 hours at 37° C. The culture supernatants are recovered, centrifuged at +4° C. and then stored at -20° C. The IL-8 concentrations of the samples are calculated from a standard curve of the following equation: OD=(Bmax*[IL-8])/(Kd+[IL-8]) Next, the percentages of inhibition of IL-8 secretion are calculated according to the following formula: […]

In the case of `NC(CO)C(=O)O` [L-serine, 2-amino-3-hydroxypropanoic acid], on PAR2, the inhibition at 3 µM is 3%, the inhibition at 10 µM amounted to 13%, the inhibition at 30 µM was 20% and the inhibition at 100 µM is 33%. For the same molecule, the “Inhibition of PAR2 activation (result in words)” value (“Inhibition of PAR2 activation” for short) on PAR2 is reported as “inhibit PAR2 activation in a dose-dependent manner”. In the experiment on IL-8 secretion (10 μM), the inhibition at 10 µM is 47%. The inhibition at 30 µM in the experiment with IL-8 secretion (30 μM) was found to be 50%. The inhibition at 100 µM with IL-8 secretion (100 μM) amounted to 66%. The inhibition at 1000 µM with IL-8 secretion (1 mM) worked out at 74%.
Regarding `CC(C)[C@H](N)C(=O)O` [L-valine], on PAR2, the inhibition at 3 µM was 6%, the inhibition at 10 µM amounted to 26%, the inhibition at 30 µM was determined as 20% and the inhibition at 100 µM came to 34%. In addition, the “Inhibition of PAR2 activation” value on PAR2 was “inhibit PAR2 activation”.
Turning to `NC(=O)CC(N)C(=O)O` [L-asparagine, asparagine-amino-succinic acid], on PAR2, the inhibition at 3 µM was determined as 23%, the inhibition at 10 µM came out at 23%, the inhibition at 30 µM is 22% and the inhibition at 100 µM was found to be 31%. Further, the “Inhibition of PAR2 activation” value at PAR2 is recorded as “inhibit PAR2 activation, but not in a dose-dependent manner”.
As to `N=C(N)NCCC[C@H](N)C(=O)O` [L-arginine, reference compound], at PAR2, the inhibition at 3 µM was -17%, the inhibition at 10 µM was determined as 12%, the inhibition at 30 µM is -11% and the inhibition at 100 µM is 1%. On PAR2, the “Inhibition of PAR2 activation” value was “does not significantly inhibit PAR2 activation”.

B1: STI: reference molecule, STI molecule (soybean trypsin inhibitor) at a concentration of 1 μM (protein, UniProt P01070 25-205, looked up)
Trypsin inhibitor A: DFVLDNEGNPLENGGTYYILSDITAFGGIRAAPTGNERCPLTVVQSRNELDKGIGTIISSPYRIRFIAEGHPLSLKFDSFAVIMLCVGIPTEWSVVEDLPEGPAVKIGENKDAMDGWFRLERVSDDEFNNYKLVFCPQQAEDDKCGDIGISIDHDDGTRRLVVSKNKPLVVQFQKLDKESL
For the molecule B1, the “Anti-PAR2 activity (percentage of inhibition)” value in the experiment with PAR2 (reference at 1 μM) is recorded as 106-109%***.
